In patent US20240342292A1, “Compounds for the Degradation of EGFR Kinase” (BeiGene Switzerland GmbH, priority 2021, published 2024):

Tests used:
[1] = target: T1, L858R/T790M/C797S EGFR (Homo sapiens, UniProt P00533, C797S/L858R/T790M); assay: EGFR degradation HTRF assay in H1975-clone #25 (LTC) cells; assay type: cell-based; conditions: 16h treatment; for DC50: H1975 # 25-LTC (L858R/T790M/C797S), HTRF; for Dmax: NCI-H1975, H1975 # 25-LTC (L858R/T790M/C797S), maximum percentage of degradation
T1 construct: expressed in transfected cells; host or cells: H1975 clone #25 (lentiviral over-expression, endogenous EGFR knocked out by sgRNA)
T1 sequence (P00533 25-1210 T790M/C797S/L858R): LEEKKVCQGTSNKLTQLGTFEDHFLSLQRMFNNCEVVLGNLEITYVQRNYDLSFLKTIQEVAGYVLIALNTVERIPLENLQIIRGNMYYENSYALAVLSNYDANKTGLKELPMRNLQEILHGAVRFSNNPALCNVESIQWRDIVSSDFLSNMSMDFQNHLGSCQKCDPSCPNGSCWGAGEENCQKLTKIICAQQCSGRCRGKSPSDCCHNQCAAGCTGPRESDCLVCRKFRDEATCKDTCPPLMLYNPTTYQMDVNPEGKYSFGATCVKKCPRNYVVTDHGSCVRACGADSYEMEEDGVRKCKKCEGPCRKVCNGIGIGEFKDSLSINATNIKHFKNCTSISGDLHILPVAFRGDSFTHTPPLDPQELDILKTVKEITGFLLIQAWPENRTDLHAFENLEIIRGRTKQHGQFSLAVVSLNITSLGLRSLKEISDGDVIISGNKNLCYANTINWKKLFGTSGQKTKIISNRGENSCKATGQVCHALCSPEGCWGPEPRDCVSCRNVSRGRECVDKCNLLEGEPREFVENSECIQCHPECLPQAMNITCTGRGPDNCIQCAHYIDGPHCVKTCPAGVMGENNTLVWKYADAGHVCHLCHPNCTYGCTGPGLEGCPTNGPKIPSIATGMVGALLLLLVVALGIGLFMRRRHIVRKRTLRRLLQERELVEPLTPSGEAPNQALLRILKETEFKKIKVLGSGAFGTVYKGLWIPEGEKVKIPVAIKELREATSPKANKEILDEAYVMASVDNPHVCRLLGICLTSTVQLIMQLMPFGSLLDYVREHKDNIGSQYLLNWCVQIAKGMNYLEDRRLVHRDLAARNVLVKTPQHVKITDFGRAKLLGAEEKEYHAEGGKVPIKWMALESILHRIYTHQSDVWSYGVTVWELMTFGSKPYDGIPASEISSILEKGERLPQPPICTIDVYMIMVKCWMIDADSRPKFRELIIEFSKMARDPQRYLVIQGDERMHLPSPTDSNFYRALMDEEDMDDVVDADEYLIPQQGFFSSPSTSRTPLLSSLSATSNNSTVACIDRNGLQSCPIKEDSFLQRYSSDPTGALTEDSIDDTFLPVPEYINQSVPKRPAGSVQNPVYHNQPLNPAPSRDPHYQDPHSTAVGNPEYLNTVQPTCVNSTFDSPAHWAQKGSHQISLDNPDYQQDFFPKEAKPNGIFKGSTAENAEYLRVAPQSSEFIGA
Outline: (§1)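 DC50 from a four-parameter fit of HTRF signal. H1975 mutant-EGFR clones with endogenous EGFR knocked out; 16 h treatment, 10 uM top, 5-fold × 8.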

[2] = tested on: Del19/T790M/C797S EGFR; assay: EGFR degradation HTRF assay in H1975-clone #28 (DTC) cells; assay type: cell-based; conditions: H1975 # 28 DTC (Del19/T790M/C797S), 16h treatment; for DC50: HTRF; for Dmax (%): maximum percentage of degradation
Outline: as §1

| DC50 [1] [pM] | Dmax [1] [%] | DC50 [2] [pM] | Structure (SMILES) | Dmax (%) [2] [%] |
| --- | --- | --- | --- | --- |
| 824 | 87.6 | 903 | COC[C@@H]1CN(c2cc(F)c([C@H]3CCC(=O)NC3=O)c(F)c2)CCN1C(=O)C1CCN(c2ccc3c(c2)N2C[C@H](C)CCCOc4c(cnn4C)-c4cc(cc(C)n4)C(=O)/N=C/2N3)CC1 [Example 357, (R)-3-(2,6-difluoro-4-((S)-3-(methoxymethyl)-4-(1-((R,E)-1^1,2^6,7-trimethyl-3-oxo-5^2,5^3-dihydro-1^1H,5^1H-11-oxa-4-aza-5(2,1)-benzo[d]imidazola-2(2,4)-pyridina-1(4,5)-pyrazolacycloundecaphane-5^6-yl)piperidine-4-carbonyl)piperazin-1-yl)phenyl)piperidine-2,6-dione] | 73.73 |
| 622 | 89.6 | 1300 | Cc1cc2cc(n1)-c1cnn(C)c1OCCC[C@@H](C)CN1/C(=N/C2=O)Nc2ccc(N3CC[C@H](C(=O)N4CCN(c5cc(F)c([C@H]6CCC(=O)NC6=O)c(F)c5)CC4)C3)cc21 [Example 358, (R)-3-(2,6-difluoro-4-(4-((S)-1-((R,E)-1^1,2^4,7-trimethyl-3-oxo-5^2,5^3-dihydro-1^1H,5^1H-11-oxa-4-aza-5(2,1)-benzo[d]imidazola-2(2,4)-pyridina-1(4,5)-pyrazolacycloundecaphane-5^6-yl)pyrrolidine-3-carbonyl)piperazin-1-yl)phenyl)piperidine-2,6-dione] | 75.67 |
| 841 | 87.1 | 751 | Cc1cc2cc(n1)-c1cnn(C)c1OCCC[C@@H](C)CN1/C(=N/C2=O)Nc2ccc(C(=O)N(C)[C@H]3CCN(C4CN(c5cc(F)c([C@H]6CCC(=O)NC6=O)c(F)c5)C4)CC3(F)F)cc21 [Example 359, (R,E)-N—((S)-1-(1-(4-((R)-2,6-dioxopiperidin-3-yl)-3,5-difluorophenyl)azetidin-3-yl)-3,3-difluoropiperidin-4-yl)-N,1^1,2^6,7-tetramethyl-3-oxo-5^2,5^3-dihydro-1^1H,5^1H-11-oxa-4-aza-5(2,1)-benzo[d]imidazola-2(2,4)-pyridina-1(4,5)-pyrazolacycloundecaphane-5^6-carboxamide] | 83.57 |
| 643 | 87.5 | 614 | COC[C@H]1CN(C(=O)C2CCN(c3ccc4c(c3)N3C[C@H](C)CCCOc5c(cnn5C)-c5cc(cc(C)n5)C(=O)/N=C/3N4)CC2)CCN1c1cc(F)c([C@H]2CCC(=O)NC2=O)c(F)c1 [Example 363, (R)-3-(2,6-difluoro-4-((R)-2-(methoxymethyl)-4-(1-((R,E)-1^1,2^6,7-trimethyl-3-oxo-5^2,5^3-dihydro-1^1H,5^1H-11-oxa-4-aza-5(2,1)-benzo[d]imidazola-2(2,4)-pyridina-1(4,5)-pyrazolacycloundecaphane-5^6-yl)piperidine-4-carbonyl)piperazin-1-yl)phenyl)piperidine-2,6-Dione] | 78.54 |
| 1120 | 86.4 | 633 | Cc1cc2cc(n1)-c1cnn(C)c1OCCC[C@@H](C)CN1/C(=N/C2=O)Nc2ccc(N3CCC(C(=O)N4CCC(Oc5cc(F)c([C@H]6CCC(=O)NC6=O)c(F)c5)CC4)CC3)cc21 [Example 364, (R)-3-(2,6-difluoro-4-((1-(1-((R,E)-1^1,2^6,7-trimethyl-3-oxo-5^2,53-dihydro-1^1H,5^1H-11-oxa-4-aza-5(2,1)-benzo[d]imidazola-2(2,4)-pyridina-1(4,5)-pyrazolacycloundecaphane-5^6-yl)piperidine-4-carbonyl)piperidin-4-yl)oxy)phenyl)piperidine-2,6-dione] | 75.27 |
| 878 | 91.1 | 625 | Cc1cc2cc(n1)-c1cnn(C)c1OCCC[C@@H](C)CN1/C(=N/C2=O)Nc2ccc(N(C)C(=O)C3CCN(CCc4cc(F)c([C@H]5CCC(=O)NC5=O)c(F)c4)CC3)cc21 [Example 365, 1-(4-((R)-2,6-dioxopiperidin-3-yl)-3,5-difluorophenethyl)-N-methyl-N—((R,E)-1^1,2^6,7-trimethyl-3-oxo-5^2,5^3-dihydro-1^1H,5^1H-11-oxa-4-aza-5(2,1)-benzo[d]imidazola-2(2,4)-pyridina-(4,5)-pyrazolacycloundecaphane-5^6-yl)piperidine-4-carboxamide] | 80.74 |
| 372 | 91.8 | 539 | Cc1cc2cc(n1)-c1cnn(C)c1OCCC[C@@H](C)CN1/C(=N/C2=O)Nc2ccc(N3CCN(CCc4cc(F)c([C@H]5CCC(=O)NC5=O)c(F)c4)CC3=O)cc21 [Example 366, (R)-3-(2,6-difluoro-4-(2-(3-oxo-4-((R,E)-1^1,2^6,7-trimethyl-3-oxo-5^2,5^3-dihydro-1^1H,5^1H-11-oxa-4-aza-5(2,1)-benzo[d]imidazola-2(2,4)-pyridina-1(4,5)-pyrazolacycloundecaphane-5^6-yl)piperazin-1-yl)ethyl)phenyl)piperidine-2,6-dione] | 84.74 |
| 1310 | 87.8 | 623 | Cc1cc2cc(n1)-c1cnn(C)c1OCC[C@@H]1C[C@H]1CN1/C(=N/C2=O)Nc2ccc(N3CCC(C(=O)N4CCN(c5cc(F)c([C@H]6CCC(=O)NC6=O)c(F)c5)CC4)CC3)cc21 [Example 367, (R)-3-(4-(4-(1-((71R,72S,E)-1^1,2^6-dimethyl-3-oxo-5^2,5^3-dihydro-1^1H,5^1H-10-oxa-4-aza-5(2,1)-benzo[d]imidazola-2(2,4)-pyridina-1(4,5)-pyrazola-7(1,2)-cyclopropanacyclodecaphane-5^6-yl)piperidine-4-carbonyl)piperazin-1-yl)-2,6-difluorophenyl)piperidine-2,6-dione] | 80.77 |
| 470 | 84.9 | 656 | Cc1cc2cc(n1)-c1cnn(C)c1OCCC[C@@H](C)CN1/C(=N/C2=O)Nc2ccc(N3CCN(C4CCN(c5ccc(C6CCC(=O)NC6=O)nc5)CC4)CC3)cc21 (stereo partly drawn) [Example 373, 3-(5-(4-(4-((R,E)-1^1,2^6,7-trimethyl-3-oxo-5^2,5^1-dihydro-1^1H,5^1H-11-oxa-4-aza-5(2,1)-benzo[d]imidazola-2(2,4)-pyridina-1(4,5)-pyrazolacycloundecaphane-5^6-yl)piperazin-1-yl)piperidin-1-yl)pyridin-2-yl)piperidine-2,6-dione] | 69.22 |
| 591 | 92.7 | 583 | Cc1cc2cc(n1)-c1cnn(C)c1OCCC[C@@H](C)CN1/C(=N/C2=O)Nc2ccc(N3CCN(C4CCN(c5cc(F)c([C@H]6CCC(=O)NC6=O)c(F)c5)CC4)CC3=O)cc21 [Example 374, (R)-3-(2,6-difluoro-4-(4-(3-oxo-4-((R,E)-1^1,2^6,7-trimethyl-3-oxo-5^2,5^3-dihydro-1^1H,5^1H-11-oxa-4-aza-5(2,1)-benzo[d]imidazola-2(2,4)-pyridina-1(4,5)-pyrazolacycloundecaphane-5^6-yl)piperazin-1-yl)piperidin-1-yl)phenyl)piperidine-2,6-dione] | 81.48 |
| 503 | 80.9 | 682 | Cc1cc2cc(n1)-c1cnn(C)c1OCCC[C@@H](C)CN1/C(=N/C2=O)Nc2ccc(C(=O)N(C)C3CCN(CCc4cccc5c4C(C)(C)C(=O)N5[C@H]4CCC(=O)NC4=O)CC3)cc21 [Example 379, (R,E)-N-(1-(2-(1-((S)-2,6-dioxopiperidin-3-yl)-3,3-dimethyl-2-oxoindolin-4-yl)ethyl)piperidin-4-yl)-N,1^1,2^6,7-tetramethyl-3-oxo-5^2,5^3-dihydro-1^1H,5^1H-11-oxa-4-aza-5(2,1)-benzo[d]imidazola-2(2,4)-pyridina-1(4,5)-pyrazolacycloundecaphane-5^6-carboxamide] | 67.89 |
| 3350 | 80.2 | 2240 | Cc1cc2cc(n1)-c1cnn(C)c1OCCC[C@@H](C)CN1/C(=N/C2=O)Nc2ccc(N3C[C@H](C)N(C4CCN(c5cc(F)c([C@H]6CCC(=O)NC6=O)c(F)c5)CC4)C[C@H]3C)cc21 [Example 380, (R)-3-(4-(4-((2S,5R)-2,5-dimethyl-4-((R,E)-1^1,2^6,7-trimethyl-3-oxo-5^2,5^1-dihydro-1^1H,5^1H-11-oxa-4-aza-5(2,1)-benzo[d]imidazola-2(2,4)-pyridina-1(4,5)-pyrazolacycloundecaphane-5^6-yl)piperazin-1-yl)piperidin-1-yl)-2,6-difluorophenyl)piperidine-2,6-dione] | 76.83 |
| 900 | 83.6 | 1060 | Cc1cc2cc(n1)-c1cnn(C)c1OCCC[C@@H](C)CN1/C(=N/C2=O)Nc2ccc(N3CCC(N4CCC(Oc5cc(F)c([C@H]6CCC(=O)NC6=O)c(F)c5)CC4)CC3)cc21 [Example 381, (R)-3-(2,6-difluoro-4-((1′-((R,E)-1^1,2^6,7-trimethyl-3-oxo-5^2,5^3-dihydro-1^1H,5^1H-11-oxa-4-aza-5(2,1)-benzo[d]imidazola-2(2,4)-pyridina-1(4,5)-pyrazolacycloundecaphane-5^6-yl)-[1,4′-bipiperidin]-4-yl)oxy)phenyl)piperidine-2,6-dione] | 60.14 |
